No end group written: not given here.

One experiment addresses T1, Na/K-ATPase α1 (Sus scrofa, UniProt P05024).
T1 construct: in normal LLC-PK1 cells, tyrosine 260 of full length Na/K-ATPase was phosphorylated; endogenous in cells; host or cells: LLC-PK1
Briefly: tyrosine 260 phosphorylation of Na/K-ATPase, Western blot. Type of experiment: cell-based. The conditions noted are these: LLC-PK1 cells, 100 nM ouabain, FIG. 4C. As to the method: FIGS. 4A-4C include a schematic diagram and images relating to the phosphorylation of Y260 in CD2, FIG. 4A is a schematic diagram showing CD2 sequence from Na/K-ATPase α1 subunit with the tentative Src SH2 domain binding region surrounding Y260 marked in a box (SEQ ID NO: 10). FIG. 4B is an image showing the results of an experiment where five hundred μg of total cell lysate was immunoprecipitated with 10 μg anti-Src antibody and immunoprecipitates were subjected to Western blot analysis of tyrosine 260 phosphorylation using an anti-phosphotyrosine 260 Na/K-ATPase α1 antibody, and where the same membrane was stripped and probed for YFP. FIG. 4C includes images showing the results of an experiment where LLC-PK1 cells were grown up to 100% confluence and then serum starved overnight and treated with 100 nM ouabain for the indicated times and then western blotted by probing for pY260 α1 Na/K-ATPase and a 1 Na/K-ATPase, […] Src and total Src.
In view of the foregoing findings, experiments were then undertaken to develop a highly specific peptide antagonist for disrupting the CD2/SH2 interaction in order to inhibit the cardiotonic steroid-mediated signaling, in cells. […] As depicted in FIG. 4B, CD2 was capable of being phosphorylated when it was expressed in cells.

For experiment [1] the following is noted: reconstituted in vitro system; previously demonstrated (PCT/US2011/021130); cited from earlier work.

For `C[C@@H]1O[C@@H](O[C@H]2C[C@@H](O)[C@]3(CO)[C@H]4[C@H](O)C[C@]5(C)[C@@H](C6=CC(=O)OC6)CC[C@]5(O)[C@@H]4CC[C@]3(O)C2)[C@H](O)[C@H](O)[C@H]1O` [ouabain], at Na/K-ATPase α1, the “phosphorylation of tyrosine 260 of full length Na/K-ATPase” value is on record as “increased the phosphorylation in a time-dependent manner”.

Regarding “CD2C2: peptide derived from CD2, non-phosphorylated; SEQ ID NO: 1 in PCT/US2011/021130 (STNCVEGTARGIVVYTGD; not fully specified (residue 15); listed as Homo sapiens)”, the ouabain antagonism entry in experiment [1] is on record as “effective ouabain antagonist”.

The values are drawn from US10781431B2, “Cardiotonic steroid antagonists and related methods” (MARSHALL UNIVERSITY RESEARCH CORPORTION, priority 2014, dated 2020).
